We go through one molecule from patent US12502390B2, “Compositions comprising tigolaner for controlling parasites” ([…], priority 2019, dated 2025).

Where two headings read alike, the source gives them in different places.

For one data set, the system named is Rhipicephalus sanguineus. The settings on record: Rhipicephalus sanguineus contact test; 1 μg/cm^2; cited from earlier work.
The test system of the next data set is Ixodes ricinus. The following applies: Ixodes ricinus contact test; 1 μg/cm^2; cited from earlier work.
The nature of data set [1]: Solubility of tigolaner in solketal (1,2-isopropylideneglycerol). The class given is physicochemical. The source says: In another embodiment of the composition the solvent component comprises only 1,2-isopropylideneglycerol.
The test system of the next data set is Dermacentor variabilis. The settings on record: rats; day 2; application rate 10 mg/kg; cited from earlier work.
Data set [2] deals with Ctenocephalides felis. The following applies: Ctenocephalides felis oral test; 100 ppm; cited from earlier work.
Data set [3] has as its system Boophilus microplus. The settings on record: Boophilus microplus dip test; 100 ppm; cited from earlier work.
The subject of a further data set is Lucilia cuprina. The following applies: 100 ppm; cited from earlier work.
Data set [4] concerns Boophilus microplus. The following applies: Boophilus microplus injection test; 20 μg/tick; cited from earlier work.
In data set [5] the test system is Amblyomma hebraeum. The following applies: Amblyomma hebraeum contact test; 1 μg/cm^2; cited from earlier work.
Data set [6] deals with Amblyomma hebraeum. The settings on record: 100 ppm; cited from earlier work.
Data set [7] deals with Ctenocephalides felis. The settings on record: Ctenocephalides felis contact test; 1 μg/cm^2; cited from earlier work.
A further data set concerns Musca domestica. The settings on record: 100 ppm; cited from earlier work.
The test system of data set [8] is Ctenocephalides felis. The following applies: rats, application rate 10 mg/kg, cited from earlier work.

For the molecule `Cn1nc(C(F)(F)C(F)(F)F)c(C(F)(F)F)c1-n1cc(-c2ccc(Cl)c(C(=O)NC3(C#N)CC3)c2)cn1` [Tigolaner], the efficacy with Rhipicephalus sanguineus, in the data set with Ixodes ricinus, in the data set with Ctenocephalides felis [2], with Boophilus microplus [3], in the data set with Lucilia cuprina and with Boophilus microplus [4] was 100% in each case. For the same molecule, the efficacy with Amblyomma hebraeum [5], in the data set on Amblyomma hebraeum [6], in the data set on Ctenocephalides felis [7] and with Musca domestica was 100% each time. For the same molecule, the “solubility of tigolaner in solketal in the presence of praziquantel” value in data set [1] (in the presence of praziquantel, in particular of 7.5 to 8.5% w/w of praziquantel) is given as “more than 10.5 % w/w”. The “effect of lactic acid on solubility of tigolaner in 1,2-isopropylideneglycerol” value in [1] (presence of lactic acid) is recorded as “slightly lowers the solubility”. The “solubility of tigolaner in solketal alone” value in [1] (solketal alone) is reported as 9.5-9.9 % w/w. Besides, in the data set with Dermacentor variabilis, the “efficacy against tick nymphs” value is more than 90%. The efficacy against fleas in the data set with Ctenocephalides felis [8] (day 2) is more than 95%; in the data set on Ctenocephalides felis [8] (day 9), more than 90%.
